{CholTEG} = cholesterol-triethylene glycol
Tests used:
Assay type in all cases: cell-based
[1] = system: Pseudomonas aeruginosa (MDR-PA, ATCC® BAA-3105™) biofilm; test: Scanning electron microscopy of biofilms grown with DNAzymes; details: stainless steel mesh, TSB, DNAzyme 1.25 μM twice, 48 hours; FIG. 5C
Protocol: FIGS. 5A-5C: Biofilm macrostructure and morphology of single bacterial cells are affected by DNAzymes targeting murG. Biofilms were grown on top of dense stainless steel mesh in TSB in 12 well plates with or without indicated DNAzymes (1.25 μM). 24 hours afterwards, an additional dose of DNAzymes was added to treated samples. Following 48 hours of overall inoculation, biofilms were fixated and dehydrated. The mesh with associated biofilms was imaged with scanning electron microscopy (SEM). The results are of a representative field of 3 independent repeats. (FIG. 5A). NT, scr, and murG162 as above) (FIG. 5B) Enlargements of representative zones, enabling detection of single-cell morphologies. (FIG. 5C) Overall measurements of the maximal thickness of dehydrated biofilms. (NT, scr, and murG162 as above)
To determine the effects of the representative DNAzymes on macro- and microstructure of treated biofilms, 3D structures of treated and untreated biofilms were examined using scanning electron microscopy (SEM).
To study the effects of DNAzyme treatment on biofilm structure, 3D topographies of the biofilms were generated to compare multiple areas of the biofilm. The biofilms were dehydrated, resulting in a uniform loss of volume percentage.

[2] = system: Pseudomonas aeruginosa (MDR-PA, ATCC® BAA-3105™) biofilm; test: Biofilm formation assays (crystal violet and CFU); details: TSB, 96 wells, DNAzyme 2.5 μM, 16 hours; for biofilm formation (crystal violet): FIG. 4A; for viable cells within the biofilm (CFU): FIG. 4B
Protocol: FIGS. 4A-B are graphs showing reduction in bacterial density (FIG. 4A) or colony-forming units (FIG. 4B) (vertical axis) in biofilms grown either with or without the indicated DNAzymes (2.5 μM) in 96 wells with tryptic soy broth (TSB) for 16 hours, after which non-adhered cells were removed, and biofilms were washed and stained with 0.1% crystal violet (FIG. 4A) or replating (FIG. 4B). Average and standard mean are depicted by horizontal bars and brackets. Scr is a control scramble DNAzyme (Scr nucleotide sequence is 5′-[…]/3CholTEG/; SEQ ID NO: 44). NT is No Treatment.
Biofilm assays. Bacterial strains were streaked from frozen LB+glycerol stocks onto LB agar plates and incubated for 24 h at 37° C. Single colonies were grown overnight at 37° C. in 3 ml of LB. Cultures were diluted 1:100 in TSB in a 96-well plate, and DNAzymes were added to a final concentration of 2.5 μM. Cultures were incubated at 37° C. without shaking for 16 hours. Non-adherent cells were removed, and biofilms were washed with PBS and either stained with crystal violet (0.1%), or biofilm cells were extracted using mild sonication (2-4 pulses of 5 seconds, amplitude 30%) for CFU determination. CFU was measured using serial dilutions of the bacterial suspensions and spots were plated on LB plates. CFU was determined as above.
To measure the ability of DNAzymes that target a transcript encoding a cell wall biosynthesis enzyme, to affect biofilm formation, bacteria were grown in TSB on plates, under conditions that favor biofilm formation. Representative DNAzymes tested included murG-162, murG-207, and murG-366.

[3] = system: Pseudomonas aeruginosa (MDR-PA, ATCC® BAA-3105™) pre-established biofilm; test: DNAzyme treatment of pre-established biofilms without or with meropenem (CFU, SEM); details: DNAzyme 2.5 μM, 8 hours; for effect on meropenem activity against pre-established biofilms: PBS + 10 μM meropenem, FIG. 6B; for reduction of biofilm biomasses: mature 24 h biofilms, without or with meropenem, FIGS. 6A-6B
Protocol: FIGS. 6A-6C: DNAzymes can reduce viability and increase antibiotic sensitivity of cells from pre-established biofilms. Biofilms were grown in TSB in 12 well plates. 24 hours later, the medium was replaced with PBS (FIG. 6A) or with PBS+10 μM meropenem (FIG. 6B) in the presence or absence of the indicated DNAzymes, murG-162 or SCR (scramble control), […]. Following 8 hours, the adherent remaining cells were extracted, and the number of CFU was determined. (FIG. 6C) Biofilms were grown as described for FIG. 6B. The mesh with associated biofilms was imaged with SEM.
The effect of DNAzymes targeting murG on pre-established biofilms was studied by comparing the application of PBS, scrambled DNAzyme control (SCR), or indicated DNAzymes (162-murG, 207-murG, and 366-murG) on mature biofilms without or with the beta-lactam meropenem (FIGS. 6A-6B, respectively).
These findings were confirmed by SEM. Biofilms treated with sub-lethal concentrations of meropenem with control SCR DNAzyme were […] and had more texture. […] FIG. 6C presents an example of these findings, wherein SCR DNAzyme treated samples were compared to biofilms treated with murG162+meropenem.

[4] = system: Pseudomonas aeruginosa strain ATCC® BAA-3105™; test: Intracellular DNAzyme quantification in bacteria grown in media (qPCR / flow cytometry); details: LB + 32 μg/ml meropenem, 1.25 μM DNAzyme, 4 hours
Protocol: FIGS. 2A-2D. Uptake of fluorescent DNAzyme in media mimicking in vivo conditions, in the presence of subtoxic concentrations of meropenem as judged by flow cytometry. […] FIG. 2B is a graph showing the copy number of fluorescent murG-207 DNAzymes (Dz) per bacterium, as measured by flow cytometry. FIG. 2C is a graph showing uptake of fluorescent murG-207 DNAzyme in bacterial cells in a biofilm. Bacteria were grown under conditions favoring biofilm formation in TSB for 24 hours. Biofilm cells were separated from non-adhered cells, incubated with fluorescent murG-207 DNAzyme for 2 hours, and analyzed by flow cytometry. FIG. 2D is a graph showing uptake of DNAzymes in bacterial colonizing lung tissue samples (mouse lungs from naïve healthy mice). MDR-PA were grown with lung samples in DMEM with meropenem for 24 hours. […] In the histograms shown in FIGS. 2A, 2C, and 2D, arrows indicate which lines represent the basal fluorescence levels of the bacteria, and fluorescence of murG-207 DNAzyme with 3′cholesterol-TEG modification.
Flow cytometry. […] Data was analyzed using Kaluza Analysis 2.1 software using a C6 import module.
Intracellular DNAzyme quantification from bacterial cells. […] For intracellular extraction of the DNAzymes, cells were incubated for 10 minutes at 95° C., and supernatants were collected for quantification of intracellular DNAzymes. […]

Row | Substance | occurrence of areas thicker than 10 μm in dehydrated biofilms [1] | biofilm formation (crystal violet) [2] | viable cells within the biofilm (CFU) [2] | effect on meropenem activity against pre-established biofilms [3] | reduction of biofilm biomasses [3] [log] | average copy number of DNAzymes per cell [4]
1 | 5′-GATCAGGTG ggctagctacaacga AACGGCAGG-Chol-TEG-3′ (DNA GATCAGGTGGGCTAGCTACAACGAAACGGCAGG; DNA, 3' {CholTEG}, backbone and methylation of C not given here) [murG-162] | significantly reduced | biofilm inhibition | significant reduction of viable cells | potentiated the effect of meropenem | ~1 | –
2 | 5′-CTTGACCAG ggctagctacaacga GACTTCAGG-Chol-TEG-3′ (DNA CTTGACCAGGGCTAGCTACAACGAGACTTCAGG; DNA, 3' {CholTEG}, backbone and methylation of C not given here) [murG-207, 10-23 DNAzyme targeting murG RNA transcript, cleavage site nt 207, 3′ cholesterol-TEG] | – | biofilm inhibition | significant reduction of viable cells | potentiated the effect of meropenem | ~1 | over 10,000 DNAzymes per cell
3 | 5′-ACCACAATACCGAGATCGGTCGTGTCGGCATGA/3CholTEG/ (DNA, 3' {CholTEG}, backbone and methylation of C not given here) [Scr, control scramble DNAzyme, reference compound] | composed of areas thicker than 10 μm, areas of about 10 μm, and significantly thinner areas | did not show inhibition of biofilm formation | did not show inhibition of biofilm formation or a reduction of viable cells | – | – | –
4 | 5′-GGCGTTCTG ggctagctacaacga TCGTGGATC-Chol-TEG-3′ (DNA GGCGTTCTGGGCTAGCTACAACGATCGTGGATC; DNA, 3' {CholTEG}, backbone and methylation of C not given here) [murG-366, 10-23 DNAzyme targeting murG RNA transcript, cleavage site nt 366, 3′ cholesterol-TEG] | – | biofilm inhibition | significant reduction of viable cells | potentiated the effect of meropenem | ~1 | –
